Measurements reported in US20150191445A1, “ACYL-HYDRAZONE AND OXADIAZOLE COMPOUNDS, PHARMACEUTICAL COMPOSITIONS CONTAINING THE SAME AND USES THEREOF” (Universidade Federal de Santa Catarina, priority 2011, published 2015).

Assays:
Format in all cases: cell-based, human
[1] = tested on: Bone marrow cells from healthy donors; test: Colony formation assay of hematopoietic cells; details: for Colony formation BFU-E / Colony formation CFU-E / Colony formation CFU-G / Colony formation CFU-GEMM / Colony formation CFU-GM / Colony formation CFU-M: two weeks of culture
Procedure: Cytotoxicity of compound 07 was also evaluated with a colony formation assay of hematopoietic cells. A “HSC-CFU complete with Epo” kit from Miltenyi (Cat #130-091-280) was used following the manufacturer's recommendations. Bone marrow cells from healthy donors were cultured in semi-solid methylcellulose medium supplemented with bovine fetal serum, bovine serum albumin, different growth factors (GM-CSF, G-CSF, SCF, IL-3, IL-6, Epo) and compound 07, whose action on hematopoiesis was evaluated. After two weeks of culture at 37° C. and 5% CO2, an assessment of the number of granulocytes (CFU-G), macrophage (CFU-M), granulocyte/macrophage (CFU-GM), erythroid (BFU-E and CFU-E) and mixed (CFU-GEMM) colonies was carried out.

REH cells = test: MTT cytotoxicity assay, REH cell line; details: 48 h of treatment
Procedure: (§1) All compounds were resuspended in DMSO at stock concentration of 20 mM and stored at −20° C. For cytotoxicity testing, the dilutions from the stock solutions were made in culture medium (RPMI-1640 plus 10% of fetal bovine serum, 100 IU/ml penicillin and 100 µg/mL Streptomycin), immediately before being discharged to the cells.
(§2) The REH and Jurkat cell lines were maintained in
(§3) RPMI-1640 medium with 10% FBS (fetal bovine serum), 100 IU/mL penicillin, 100 µg/mL streptomycin and incubated at 37° C. and 5% CO2. Cytotoxicity assays were performed according to the method described in the literature (Pieters, R.; et al. In vitro drug sensitivity of cells from children with leukemia using the MTT assay with improved culture conditions. Blood, 1990, 76, 2327-2336; Pieters, R.; et al. Relation of cellular drug resistance to long-term clinical outcome in childhood acute lymphoblastic leukaemia. Lancet, 1991, 338, 399-403 e Kaspers, G. J.; et al. In vitro cellular drug resistance and prognosis in newly diagnosed childhood acute lymphoblastic leukemia. Blood, 1997, 90, 2723). Cells were resuspended at a concentration of 3.75 10^5 cells/mL in culture medium as described. Eighty microliters of this suspension were seeded into plates with 96 round-bottom wells, containing 20 microliters of different concentrations of compound or vehicle alone. Each treatment was done in triplicate. After 48 hours of incubation at 37° C. and 5% CO2, 20 μL of MTT solution was added (5 mg/mL of 1x PBS), followed by further incubation for 4 hours and 30 minutes at 37° C. and 5% CO2. During these 4 hours and 30 minutes, MTT (yellowish) is metabolized to formazan salt (bluish in color) by living cells. After this, 100 μL sodium dodecyl sulphate (SDS) 10%+0.1M of HCl were added to dissolve the formazan crystals. After incubating overnight, absorbance reading at 570 nm was carried out. The percentage of cells surviving the treatment were calculated relative to the number of surviving cells in the medium without addition of the compounds in question (“negative control”).
(§4) c) Determination of IC: IC50 is defined as the concentration of a compound at which 50% of maximal inhibition is obtained. After reading the absorbance, survival curves were constructed and the values of IC50 were obtained with the GraphPad Prism software.

HL-60 cells = test: DNA microarray gene expression and GSEA analysis; details: 125 nM, 6 h
Procedure: The cells were incubated for 12 hours in fresh medium before the experiments. Two million cells from the leukemic cell line HL60, in triplicate, were treated with a 125 nM dose of compound 07 or with dimethylsulfoxide (DMSO) vehicle for 6 h, in DMEM supplemented with 10% fetal bovine serum. At the end of this period, the cells were recovered by brief centrifugation and lysed in a solution of guanidine of the RNAspin Mini RNA Isolation kit (GE).
Total RNA was extracted from cells using the RNAspin Mini RNA Isolation kit (GE) following the manufacturer's instructions. A total of 100 ng of RNA was used to prepare biotinylated complementary RNA probes (Bio-cRNA), by cDNA synthesis followed by amplification by in vitro transcription, using the GeneChip WT cDNA Synthesis and Amplification kit (Affymetrix) according to the recommendations of the manufacturer. […]
the results of the microarray hybridization were read in the Affymetrix Gene Chip Scanner 3000-7G. Data were analyzed in the Bioconductor platform. […] The list of differentially expressed genes were analyzed using the CMap (http://www.broad.mit.edu/cmap/) for identification of possible action mechanisms related to the action of known compounds (Lamb, J., Crawford E. D. The Connectivity Map: Using Gene-Expression Signatures to Connect Small Molecules, Genes and Disease Science 2006, 313, 1929-1935). […]

Jurkat cells = test: MTT cytotoxicity assay, Jurkat cell line; details: 48 h of treatment, read-out: IC50 T (Jurkat)
Procedure: as §1, §2, §3, §4

For `COc1cc(C(=O)NN=Cc2cccc3ccccc23)cc(OC)c1OC` [Compound 07], the “Colony formation BFU-E” value ([1]; 2 nM) was 39%, the “Colony formation CFU-E” value ([1]; 2 nM) was 23% and the “Colony formation CFU-G” value ([1]; 2 nM) was 11%. The “Colony formation CFU-GEMM” value ([1]; 2 nM) was 1%, the “Colony formation CFU-GM” value ([1]; 2 nM) was 52% and the “Colony formation CFU-M” value ([1]; 2 nM) was 17%. For the same compound, the “effect on erythrocyte formation” value ([1]; 20 nM) was “inhibitory activity on erythrocyte formation comparable to a PI3K inhibitor”, the “effect on granulocytes and macrophages” value ([1]; 20 nM) was “inhibitory activity against granulocytes and macrophages, although low in intensity when compared to a F13K inhibitor” and the “Colony formation BFU-E” value ([1]; 20 nM) was 26%. The “Colony formation CFU-E” value ([1]; 20 nM) was 11%, the “Colony formation CFU-G” value ([1]; 20 nM) was 14% and the “Colony formation CFU-GEMM” value ([1]; 20 nM) was 2%. The “Colony formation CFU-GM” value ([1]; 20 nM) was 27%, the “Colony formation CFU-M” value ([1]; 20 nM) was 25% and the effect on hematopoiesis ([1]; 200 nM) was “completely inhibited hematopoiesis”. The “Colony formation BFU-E” value ([1]; 200 nM) was 0%, the “Colony formation CFU-E” value ([1]; 200 nM) was 0% and the “Colony formation CFU-G” value ([1]; 200 nM) was 0%. The “Colony formation CFU-GEMM” value ([1]; 200 nM) was 0%, the “Colony formation CFU-GM” value ([1]; 200 nM) was 0% and the “Colony formation CFU-M” value ([1]; 200 nM) was 0%. The IC50 (REH cells) was 0.0254 µM, the “expression of tubulin and tubulin-specific chaperone gene set (GSEA)” value (HL-60 cells) was “drastic reduction of the expression of a set of genes of tubulin and tubulin-specific chaperones” and the IC50 (Jurkat cells) was 0.0157 µM.
